Source: patent publication US20240150334A1, “HSD17B13 INHIBITORS AND/OR DEGRADERS” (Pfizer Inc., priority 2022, published 2024)
Structures can show the parent of a compound that is named as a salt.

Target: wild type human HSD17B13 (Homo sapiens (Human), UniProt Q7Z5P4)
Assay: HEK_Beta-Est LCMS_IC50_Tekcel, whole-cell HEK-HSD17B13 inhibition assay, estrone production by LCMS
Assay type: cell-based
Conditions: geometric mean, HEK cells stably expressing wild type human HSD17B13, 25 μM FAC beta-estradiol, read-out: HEK_Beta-Est LCMS_IC50—Tekcel GMean IC50
Protocol: HEK_Beta-Est LCMS_IC50_Tekcel
Inhibition potency of test compounds was determined using a whole-cell HEK-HSD17B13 inhibition assay, utilizing a LCMS readout.
HSD17B13 uses the oxidized form of nicotinamide adenine dinucleotide (NAD+) as a cofactor during metabolism of beta-estradiol (substrate), converting NAD+ to the reduced form (NADH) and beta-estradiol to its product (estrone). Estrone production is quantified by LCMS, and used as a measure of HSD17B13 enzyme activity.
([…]: 5% CO2). […] Growth media was then removed from the cell plates and replaced with 10 μL of 2×FAC test compound, and incubated for 1 hour (with lid) at 37° C. […] The reaction was incubated for 2 hours (with lid) at 37° C. […] Amount of product (estrone) was then quantified by LCMS. Data expressed as product area ratio (PAR) were then normalized to control wells using Activity Base (IDBS). Zero percent effect (ZPE) was defined as PAR generated from uninhibited HSD17B13 (vehicle control).

Sequence of wild type human HSD17B13 (Q7Z5P4 20-300): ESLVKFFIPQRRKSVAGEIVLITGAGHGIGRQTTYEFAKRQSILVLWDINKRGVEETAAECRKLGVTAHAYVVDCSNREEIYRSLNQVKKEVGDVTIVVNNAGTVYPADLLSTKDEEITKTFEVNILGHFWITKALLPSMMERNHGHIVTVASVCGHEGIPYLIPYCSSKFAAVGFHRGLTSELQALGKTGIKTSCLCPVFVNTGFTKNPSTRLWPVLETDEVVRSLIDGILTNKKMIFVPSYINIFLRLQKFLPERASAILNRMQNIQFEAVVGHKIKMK

| IC50 | Structure (SMILES) |
| --- | --- |
| 200 nM | O=C(NC[C@H]1CC[C@H](n2cc3ccc(-c4cnn5ccccc45)cc3n2)CC1)c1cc(F)c(O)c(F)c1 [Example 80, 3,5-difluoro-4-hydroxy-N-({(1r,4r)-4-[6-(pyrazolo[1,5-a]pyridin-3-yl)-2H-indazol-2-yl]cyclohexyl}methyl) benzamide, trifuoroacetate salt] |
| 65 nM | O=C(NC[C@H]1CC[C@H](n2cc3ccc(-c4cnsc4)cc3n2)CC1)c1cc(F)c(O)c(F)c1 [Example 100, 3,5-difluoro-4-hydroxy-N-({(1r,4r)-4-[6-(1,2-thiazol-4-yl)-2H-indazol-2-yl]cyclohexyl}methyl)benzamide] |
| 250 nM | COc1cncc(-c2ccc3cn([C@H]4CC[C@H](CNC(=O)c5cc(F)c(O)c(F)c5)CC4)nc3c2)c1 [Example 120, 3,5-difluoro-4-hydroxy-N-({(1r,4r)-4-[6-(5-methoxypyridin-3-yl)-2H-indazol-2-yl]cyclohexyl}methyl) benzamide, trifluoroacetate salt] |
| 150 nM | O=C(NC[C@H]1CC[C@H](n2cc3ccc(-c4ccn5ncnc5c4)cc3n2)CC1)c1cc(F)c(O)c(F)c1 [Example 119, 3,5-difluoro-4-hydroxy-N-({(1r,4r)-4-[6-([1,2,4]triazolo[1,5-a]pyridin-7-yl)-2H-indazol-2-yl]cyclo-hexyl}methyl) benzamide, trifluoroacetate salt] |
| 280 nM | O=C(NC[C@H]1CC[C@H](n2cc3ccc(-c4ncc(C(F)F)s4)cc3n2)CC1)c1cc(F)c(O)c(F)c1 [Example 91, N-{[(1r,4r)-4-{6-[5-(difluoromethyl)-1,3-thiazol-2-yl]-2H-indazol-2-yl}cyclohexyl]methyl}-3,5-difluoro-4-hydroxybenzamide] |
| 370 nM | Cn1cc(-c2ccc3cn([C@H]4CC[C@H](CNC(=O)c5cc(F)c(O)c(F)c5)CC4)nc3c2)nn1 [Example 79, 3,5-difluoro-4-hydroxy-N-({(1r,4r)-4-[6-(1-methyl-1H-1,2,3-triazol-4-yl)-2H-indazol-2-yl]cyclohexyl}methyl) benzamide] |
| 330 nM | Cc1cn(-c2ccc3cn([C@H]4CC[C@H](CNC(=O)c5cc(F)c(O)c(F)c5F)CC4)nc3c2)cn1 [Example 163, 2,3,5-trifluoro-4-hydroxy-N-({(1r,4r)-4-[6-(4-methyl-1H-imidazol-1-yl)-2H-indazol-2-yl]cyclo-hexyl}methyl) benzamide] |
| 170 nM | COc1nccc(-c2ccc3cn([C@H]4CC[C@H](CNC(=O)c5cc(F)c(O)c(F)c5)CC4)nc3c2)n1 [Example 109, 3,5-difluoro-4-hydroxy-N-({(1r,4r)-4-[6-(2-methoxy-pyrimidin-4-yl)-2H-indazol-2-yl]cyclohexyl}methyl) benzamide] |
| 110 nM | O=C(NC[C@H]1CC[C@H](n2cc3ccc(-c4ccsn4)cc3n2)CC1)c1cc(F)c(O)c(F)c1 [Example 98, 3,5-difluoro-4-hydroxy-N-({(1r,4r)-4-[6-(1,2-thiazol-3-yl)-2H-indazol-2-yl]cyclohexyl}methyl) benzamide] |
| 110 nM | O=C(NC[C@H]1CC[C@H](n2cc3ccc(-c4nccs4)cc3n2)CC1)c1cc(F)c(O)c(F)c1 [Example 110, 3,5-difluoro-4-hydroxy-N-({(1r,4r)-4-[6-(1,3-thiazol-2-yl)-2H-indazol-2-yl]cyclohexyl}methyl) benzamide] |
| 300 nM | O=C(NC[C@H]1CC[C@H](n2cc3ccc(-c4ncc5cc[nH]c5n4)cc3n2)CC1)c1cc(F)c(O)c(F)c1 [Example 97, 3,5-difluoro-4-hydroxy-N-({(1r,4r)-4-[6-(7H-pyrrolo[2,3-d]pyrimidin-2-yl)-2H-indazol-2-yl]cyclohexyl}methyl) benzamide] |
| 140 nM | COc1ccc(-c2ccc3cn([C@H]4CC[C@H](CNC(=O)c5cc(F)c(O)c(F)c5)CC4)nc3c2)cn1 [Example 108, 3,5-difluoro-4-hydroxy-N-({(1r,4r)-4-[6-(6-methoxy-pyridin-3-yl)-2H-indazol-2-yl]cyclohexyl}methyl) benzamide, trifluoroacetate salt] |
| 200 nM | O=C(NC[C@H]1CC[C@H](c2cn3cc(-c4cnn(C(F)F)c4)ccc3n2)CC1)c1cc(F)c(O)c(F)c1F [Example 167, N-{[(1r,4r)-4-{6-[1-(difluoromethyl)-1H-pyrazol-4-yl]imidazo [1,2-a]pyridin-2-yl}cyclohexyl]methyl}-2,3,5-trifluoro-4-hydroxy-benzamide, trifluoroacetate salt] |
| 180 nM | O=C(NC[C@H]1CC[C@H](n2cc3ccc(-c4cc(C5CC5)ncn4)cc3n2)CC1)c1cc(F)c(O)c(F)c1 [Example 93, N-({(1r,4r)-4-[6-(6-cyclopropylpyrimidin-4-yl)-2H-indazol-2-yl]cyclohexyl}methyl)-3,5-difluoro-4-hydroxybenzamide] |
| 470 nM | O=C(NC[C@H]1CC[C@H](c2nc(-c3cnc(C(F)(F)F)cn3)no2)CC1)c1cc(F)c(O)c(F)c1F [Example 148, 2,3,5-trifluoro-4-hydroxy-N-{[(1r,4r)-4-{3-[5-(trifluoromethyl)pyrazin-2-yl]-1,2,4-oxadiazol-5-yl}cyclohexyl]methyl} benzamide] |
| 190 nM | Cc1cnc(-c2ccc3cn([C@H]4CC[C@H](CNC(=O)c5cc(F)c(O)c(F)c5)CC4)nc3c2)s1 [Example 115, 3,5-difluoro-4-hydroxy-N-({(1r,4r)-4-[6-(5-methyl-1,3-thiazol-2-yl)-2H-indazol-2-yl]cyclohexyl}methyl) benzamide] |
| 390 nM | O=C(NC[C@H]1CC[C@H](n2cc3ccc(-c4csc5cncn45)cc3n2)CC1)c1cc(F)c(O)c(F)c1 [Example 84, 3,5-difluoro-4-hydroxy-N-({(1r,4r)-4-[6-(imidazo[5,1-b][1,3]thiazol-3-yl)-2H-indazol-2-yl]cyclohexyl}methyl) benzamide, trifluoroacetate salt] |
| 120 nM | O=C(NC[C@]12CC[C@](n3cc4ccc(-c5cnccn5)cc4n3)(CC1)CC2)c1cc(F)c(O)c(F)c1 [Example 208, 3,5-difluoro-4-hydroxy-N-({4-[6-(pyrazin-2-yl)-2H-indazol-2-yl]bicyclo [2.2.2]octan-1-yl}methyl)benzamide] |
| 410 nM | O=C(NC[C@H]1CC[C@H](n2cc3ccc(-n4ccnc4)cc3n2)CC1)c1cc(F)c(O)c(F)c1F [Example 166, 2,3,5-trifluoro-4-hydroxy-N-({(1r,4r)-4-[6-(1H-imidazol-1-yl)-2H-indazol-2-yl]cyclohexyl}methyl) benzamide, trifluoroacetate salt] |
| 160 nM | Cc1nsc(-c2ccc3cn([C@H]4CC[C@H](CNC(=O)c5cc(F)c(O)c(F)c5)CC4)nc3c2)n1 [Example 107, 3,5-difluoro-4-hydroxy-N-({(1r,4r)-4-[6-(3-methyl-1,2,4-thiadiazol-5-yl)-2H-indazol-2-yl]cyclo-hexyl}methyl) benzamide] |
| 370 nM | Cn1cc(-c2ccc3cn([C@H]4CC[C@H](CNC(=O)c5cc(F)c(O)c(F)c5)CC4)nc3c2)ccc1=O [Example 104, 3,5-difluoro-4-hydroxy-N-({(1r,4r)-4-[6-(1-methyl-6-oxo-1,6-dihydropyridin-3-yl)-2H-indazol-2-yl]cyclohexyl}methyl) benzamide] |
| 91 nM | Cn1cc(-c2ccc3nn([C@H]4CC[C@H](CNC(=O)c5cc(F)c(O)c(F)c5)CC4)cc3c2)cn1 [Example 159, 3,5-difluoro-4-hydroxy-N-({(1r,4r)-4-[5-(1-methyl-1H-pyrazol-4-yl)-2H-indazol-2-yl]cyclohexyl}methyl) benzamide, trifluoroacetate salt] |
| 380 nM | Cn1nc(-c2noc([C@]34CC[C@](CNC(=O)c5cc(F)c(O)c(F)c5F)(CC3)CC4)n2)ccc1=O [Example 168, 2,3,5-trifluoro-4-hydroxy-N-({4-[3-(1-methyl-6-oxo-1,6-dihydropyridazin-3-yl)-1,2,4-oxadiazol-5-yl]bicyclo[2.2.2]octan-1-yl}methyl) benzamide] |
| 140 nM | Cc1nc(-c2ccc3cn([C@H]4CC[C@H](CNC(=O)c5cc(F)c(O)c(F)c5)CC4)nc3c2)cs1 [Example 94, 3,5-difluoro-4-hydroxy-N-({(1r,4r)-4-[6-(2-methyl-1,3-thiazol-4-yl)-2H-indazol-2-yl]cyclohexyl}methyl) benzamide] |
| 190 nM | O=C(NC[C@H]1CC[C@H](n2cc3ccc(-c4cnc(C(F)(F)F)cn4)cc3n2)CC1)c1cc(F)c(O)c(F)c1 [Example 78, 3,5-difluoro-4-hydroxy-N-{[(1r,4r)-4-{6-[5-(trifluoromethyl)pyrazin-2-yl]-2H-indazol-2-yl}cyclohexyl]methyl} benzamide] |
| 200 nM | Cc1cncc(-c2ccc3cn([C@H]4CC[C@H](CNC(=O)c5cc(F)c(O)c(F)c5)CC4)nc3c2)c1 [Example 90, 3,5-difluoro-4-hydroxy-N-({(1r,4r)-4-[6-(5-methylpyridin-3-yl)-2H-indazol-2-yl]cyclohexyl}methyl) benzamide, trifluoroacetate salt] |
| 380 nM | O=C(NC[C@H]1CC[C@H](n2cc3cc(OCc4cccc(C(F)(F)F)n4)ncc3n2)CC1)c1cc(F)c(O)c(F)c1 [Example 33, 3,5-difluoro-4-hydroxy-N-{[(1r,4r)-4-(5-{[6-(trifluoromethyl)pyridin-2-yl]methoxy}-2H-pyrazolo[3,4-c]pyridin-2-yl)cyclohexyl]methyl}benzamide] |
| 130 nM | Cc1cc(-c2ccc3cn([C@H]4CC[C@H](CNC(=O)c5cc(F)c(O)c(F)c5)CC4)nc3c2)ncn1 [Example 87, 3,5-difluoro-4-hydroxy-N-({(1r,4r)-4-[6-(6-methylpyrimidin-4-yl)-2H-indazol-2-yl]cyclohexyl}methyl) benzamide] |
